Here are results for four compounds from US12679824B2 (Hoffmann-La Roche Inc., priority 2020, dated 2026).

The structures appear in SMILES notation.

In this experiment the test system is Acinetobacter baumannii ATCC17978. The experiment is described as follows: Minimal Inhibitory Concentration (MIC) assay. Type of experiment: cell-based. The settings on record: Acinetobacter baumannii ATCC17978; CAMHB; 20 hours at 35±2° C.; lowest concentration that inhibits visible growth; read-out: ATCC 17978 MIC. As to the method:
Minimal Inhibitory Concentration Protocol (MIC) Assay:
Table 2 provides the in vitro potency of the compounds of present invention obtained against the strain Acinetobacter baumannii ATCC17978, which was assessed by an MIC (Minimal Inhibitory Concentration) assay as follows.
Test compounds were prepared from 10 mM DMSO stock solutions. The top dose was diluted from 10 mM to 2.5 mM by DMSO, followed by serial 2-fold 11 points dilutions in DMSO in a master plate (Greiner, Cat No: 651201). 2 μL compounds were transferred from the master plate into a new 96-well assay plate (Costar, 3599).
The growth medium […] Mueller Hinton Broth (CAMHB) was prepared by adding 22 g powder (BD, 212322) in 1 L purified water, autoclaved, and supplemented with sterilized CaCl2) (20 mg per liter) and MgCl2 (10 mg per liter).
Vials of each of the test microorganisms were maintained frozen in the vapor phase of a liquid nitrogen freezer. Took out the bacterial strain ATCC 17978 from liquid nitrogen freezer, thawed it at room temperature, and diluted the bacterial in the CAMHB medium to achieve a final inoculum of 2×10^5 CFU/mL. 98 μL of the adjusted bacteria suspension was dispensed to the assay plate and pipetted 5 times.
Then the assay plates were incubated for 20 hours at 35±2° C. in ambient air with humidity. Following incubation, MIC (μg/mL) value, the lowest concentration of drug that inhibits visible growth of the microorganism, was recorded by visual judgment of bacterial growth through magnification mirror of MIC reader, and the assay plates were photographed with Qcount system as image raw data. Meanwhile, the OD600 of assay plates was recorded with SpectraMax Plus384 as OD raw data.
As to `CNc1ccc(-n2cc(-c3cnc(C(=O)Nc4ccc(C(=O)N5CCN(C(=O)[C@@H]6CCNC[C@H]6O)CC5)c(Cl)c4)n3C)c(C(F)(F)F)n2)nc1.O=CO` [Example D2], the MIC was found to be 1.12 µg/mL.
The result for `CNc1ccc(-n2cc(-c3cnc(C(=O)Nc4ccc(C(=O)N5CCN(C(=O)C6(O)CCNCC6)CC5)c(Cl)c4)n3C)c(C(F)(F)F)n2)nc1.O=CO` [Example D3, N-[3-chloro-4-[4-(4-hydroxypiperidine-4-carbonyl)piperazine-1-carbonyl]phenyl]-1-methyl-5-[1-[5-(methylamino)-2-pyridyl]-3-(trifluoromethyl)pyrazol-4-yl]imidazole-2-carboxamide] reads 1.16 µg/mL; that for `Cn1c(-c2cn(-c3ncccn3)nc2C(F)(F)F)cnc1C(=O)Nc1ccc(C(=O)N[C@H]2[C@@H]3CN(C(=O)[C@@H]4C[C@@H](O)CN4)C[C@@H]32)c(Cl)c1.O=CO` [Example F2, N-[3-chloro-4-[[(1R,5S)-3-[(2S,4R)-4-hydroxypyrrolidine-2-carbonyl]-3-azabicyclo[3.1.0]hexan-6-yl]carbamoyl]phenyl]-1-methyl-5-[1-pyrimidin-2-yl-3-(trifluoromethyl)pyrazol-4-yl]imidazole-2-carboxamide], 4.43 µg/mL; that for `Cn1c(-c2cn(-c3ncccn3)nc2C(F)(F)F)cnc1C(=O)Nc1ccc(C(=O)N[C@H]2[C@@H]3CN(C(=O)C4CCNCC4)C[C@@H]32)c(Cl)c1.O=CO` [Example F3, N-[3-chloro-4-[[(1S,5R)-3-(piperidine-4-carbonyl)-3-azabicyclo[3.1.0]hexan-6-yl]carbamoyl]phenyl]-1-methyl-5-[1-pyrimidin-2-yl-3-(trifluoromethyl)pyrazol-4-yl]imidazole-2-carboxamide], 4.41 µg/mL.
